Experimental data from US10118902B2 (Sanford Burnham Prebys Medical Discovery Institute, priority 2014, dated 2018).

target: neurotensin receptor 1 (NTR1) (Homo sapiens (Human), UniProt P30989); test: NTR1 dose response, high-content imaging beta-arrestin-GFP assay in NTR1-U2OS cells; format: cell-based; parameters: scale not given here; settings: not given
Text: The cell lines utilized in the high-content imaging assays, which include the NTR1-, NTR2-, and GPR35-U2OS osteosarcomas, were obtained from the laboratory of Dr. Lawrence Barak at the Duke University Medical Center. The media used in the culture of the cell lines, as well as the assays themselves, consisted of Minimum Essential Medium (15-010-CM) and L-glutamine (25-005-CL) from Cellgro/Mediatech (Manassas, Va.), fetal bovine serum (SH30396.03) from Hyclone (Logan, Utah), penicillin-streptomycin solution (PS-20) from Omega Scientific in Tarzana, Calif., G418 (ant-gn-1) from Invivogen (San Diego, Calif.), and zeocin (R250-01) from Invitrogen (Carlsbad, Calif.). Cell lines were cultured in T225 tissue culture flasks (431082) supplied by Corning (Corning, N.Y.). Additional reagents employed include Dulbecco's Phosphate-Buffered Saline (DPBS) (21-031CV) from Cellgro/Mediatech, Trypsin-EDTA 0.05% (25300) from Invitrogen, paraformaldehyde (30528954) from Acros Organics (Geel, Belgium), Hoechst 33342 (H3570) from Invitrogen. The high-content assays were run in 1536-well plates (29326) supplied by Aurora Biotechnology (Poway, Calif.) and utilized aluminum plate seals (T592100) from E&K Scientific (Santa Clara, Calif.). […]
The high-content imaging based NTR1 primary screen in 1536-well format was utilized to assay the MLSMR library of chemical entities in the following manner. On day one, 4 uL of a cell suspension containing 350,000 NTR1-U2OS cells per mL is added to each well of a 1536-well assay plate. Cells are plated in MEM medium containing 2.5% Fetal Bovine Serum, 1% Penicillin/Streptomycin solution, 1% L-Glutamine, 400 ug/mL G418, and 200 ug/mL Zeocin. The assay plates are then incubated overnight at 37° C., under 5% CO2. Following the overnight incubation, a volume of 60 nL of the compounds at 2 mM in DMSO (final 20 μM, 1% DMSO) was transferred to columns 5-48 of the assay plates using a LabCyte Echo Liquid Handler. Next, 60 nL of DMSO were dispensed to columns 1-4, which served as the positive and neutral control wells. […] The assay plates were centrifuged on an Eppendorf 5810 centrifuge at 1000 rpm for 1 min to ensure even liquid levels in the wells of the assay plates. The assay plates were then returned to the incubator for 1 hour. Following the hour-long incubation at 37° C., the cells in each well were fixed with 4 uL of 6% paraformaldehyde added with a Multidrop Combi. The assay plates were centrifuged as before and incubated at room temperature for 1 hour. On the Kalypsys, plates were then aspirated down to 2.5 uL per well and washed twice with 11 uL per well of DPBS, followed by a final aspiration to 2.5 uL per well. On the Combi dispenser, 5 uL of 5 ug/mL Hoechst 33342 diluted in DPBS was added to each well of assay plates. The plates were again centrifuged as previously described, sealed, and incubated for at least 1 hour prior to being loaded on a PerkinElmer Opera QEHS.
Image acquisition was performed with a 45 plate capacity loader/stacker and the following settings: 40×0.6 NA air objective, acquisition camera set to 2-by-2 binning for an image size of 688 by 512 pixels, beta-arrestin-GFP acquired using 488 nm laser excitation and 540/75 nm emission filters, DAPI (nuclei) using 365 nm Xenon lamp excitation and 450/50 nm emission filters, 3 fields per well. Image analysis was performed using the Acapella Spot Detection Algorithm. For analysis settings and the metrics employed in the data analyses, please refer to supplemental information.
Compounds that were successfully confirmed in quadruplicate at 20 uM were then run in dose response in the primary assay. As with the single concentration hit confirmation, the assay was performed in an identical manner as the primary screen with the following modifications. […]

Sequence of neurotensin receptor 1 (NTR1) (P30989 whole entry, species assumed): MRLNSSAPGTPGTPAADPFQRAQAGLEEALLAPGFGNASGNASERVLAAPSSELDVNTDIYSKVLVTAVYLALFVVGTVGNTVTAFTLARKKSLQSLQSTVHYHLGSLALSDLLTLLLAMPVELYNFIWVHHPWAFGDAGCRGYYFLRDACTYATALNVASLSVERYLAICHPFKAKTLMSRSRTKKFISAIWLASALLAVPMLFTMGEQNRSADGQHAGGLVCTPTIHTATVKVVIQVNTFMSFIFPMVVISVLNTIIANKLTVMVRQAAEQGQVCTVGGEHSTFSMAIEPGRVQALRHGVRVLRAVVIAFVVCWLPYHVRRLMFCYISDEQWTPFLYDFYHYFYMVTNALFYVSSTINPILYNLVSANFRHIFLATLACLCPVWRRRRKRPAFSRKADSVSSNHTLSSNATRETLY

With COc1ccccc1C1CCN(c2nc(C3CCC3)nc3ccc(N(C)C)cc23)CC1 [Example 42, {2-cyclobutyl-4-[4-(2-methoxy-phenyl)-piperidin-1-yl]-quinazolin-6-yl}-dimethyl-amine] as the compound, how does the EC50 read?
Its EC50 is “C or D”.

same assay, conditions: read-out: EC50

With COc1ccccc1C1CCN(c2nc(C3(C)CC3)nc3ccc(N(C)CCN(C)C)cc23)CC1 [Example 23, N-[4-[4-(2-methoxy-phenyl)-piperidin-1-yl]-2-(1-methyl-cyclopropyl)-quinazolin-6-yl]-N,N′,N′-trimethyl-ethane-1,2-diamine] as the compound, how does the EC50 read?
The EC50 was > 10 µM.

For COc1ccccc1C1CCN(c2nc(C3(C)CC3)nc3ccc(N(C)CCN4CCCC4)cc23)CC1 [Example 24, [4-[4-(2-methoxy-phenyl)-piperidin-1-yl]-2-(1-methyl-cyclopropyl)-quinazolin-6-yl]-methyl-(2-pyrrolidin-1-yl-ethyl)-amine], which EC50 is on record?
Its EC50 is 2 to 10 µM.

CN(C)c1ccccc1C1CCN(c2nc(C3(C)CC3)nc3ccc(N(C)CCO)cc23)CC1 [Example 25, 2-{[4-[4-(2-dimethylamino-phenyl)-piperidin-1-yl]-2-(1-methyl-cyclopropyl)-quinazolin-6-yl]-methyl-amino}-ethanol] was tested. Which EC50 did it give?
Its EC50 is 2 to 10 µM.

With COCCN(C)c1ccc2nc(C3(C)CC3)nc(N3CCC(c4ccccc4N(C)C)CC3)c2c1 [Example 26, [4-[4-(2-dimethylamino-phenyl)-piperidin-1-yl]-2-(1-methyl-cyclopropyl)-quinazolin-6-yl]-(2-methoxy-ethyl)-methyl-amine] as the compound, how does the EC50 read?
Its EC50 is > 10 µM.

CN(C)c1ccccc1C1CCN(c2nc(C3(C)CC3)nc3ccc(N(C)CCN4CCOCC4)cc23)CC1 [Example 27] was tested. Which EC50 did it give?
Its EC50 is > 10 µM.

How did the EC50 turn out when CN(C)CCN(C)c1ccc2nc(C3(C)CC3)nc(N3CCC(c4ccccc4N(C)C)CC3)c2c1 [Example 28, N-[4-[4-(2-dimethylamino-phenyl)-piperidin-1-yl]-2-(1-methyl-cyclopropyl)-quinazolin-6-yl]-N,N′,N′-trimethyl-ethane-1,2-diamine] was run?
Its EC50 is > 10 µM.

CN(C)c1ccccc1C1CCN(c2nc(C3(C)CC3)nc3ccc(N(C)CCN4CCCC4)cc23)CC1 [Example 29, [4-[4-(2-dimethylamino-phenyl)-piperidin-1-yl]-2-(1-methyl-cyclopropyl)-quinazolin-6-yl]-methyl-(2-pyrrolidin-1-yl-ethyl)-amine] was tested. Which EC50 did it give?
Its EC50 is > 10 µM.

How did the EC50 turn out when CN(CCO)c1ccc2nc(C3(C)CC3)nc(N3CCC(c4ccccc4N4CCC4)CC3)c2c1 [Example 30, 2-{[4-[4-(2-azetidin-1-yl-phenyl)-piperidin-1-yl]-2-(1-methyl-cyclopropyl)-quinazolin-6-yl]-methyl-amino}-ethanol] was run?
The EC50 was 2 to 10 µM.

With COCCN(C)c1ccc2nc(C3(C)CC3)nc(N3CCC(c4ccccc4N4CCC4)CC3)c2c1 [Example 31, [4-[4-(2-azetidin-1-yl-phenyl)-piperidin-1-yl]-2-(1-methyl-cyclopropyl)-quinazolin-6-yl]-(2-methoxy-ethyl)-methyl-amine] as the compound, how does the EC50 read?
The EC50 was > 10 µM.

CN(CCN1CCOCC1)c1ccc2nc(C3(C)CC3)nc(N3CCC(c4ccccc4N4CCC4)CC3)c2c1 [Example 32, [4-[4-(2-azetidin-1-yl-phenyl)-piperidin-1-yl]-2-(1-methyl-cyclopropyl)-quinazolin-6-yl]-methyl-(2-morpholin-4-yl-ethyl)-amine] was tested. Which EC50 did it give?
Its EC50 is > 10 µM.

COCCN(C)c1ccc2nc(C3(C)CC3)nc(N3CCC(c4ccccc4OC)CC3)c2c1 [Example 33, N-(2-methoxyethyl)-4-(4-(2-methoxyphenyl)piperidin-1-yl)-N-methyl-2-(1-methylcyclopropyl)quinazolin-6-amine] was tested. Which EC50 did it give?
Its EC50 is 2 to 10 µM.

How did the EC50 turn out when COc1ccccc1C1CCN(c2nc(C3(C)CC3)nc3ccc(N(C)CCN4CCOCC4)cc23)CC1 [Example 34, 4-(4-(2-methoxyphenyl)piperidin-1-yl)-N-methyl-2-(1-methylcyclopropyl)-N-(2-morpholinoethyl) quinazolin-6-amine] was run?
The EC50 was 2 to 10 µM.

CN(C)CCN(C)c1ccc2nc(C3(C)CC3)nc(N3CCC(c4ccccc4N4CCC4)CC3)c2c1 [Example 35, N-[4-[4-(2-azetidin-1-yl-phenyl)-piperidin-1-yl]-2-(1-methyl-cyclopropyl)-quinazolin-6-yl]-N,N′,N′-trimethyl-ethane-1,2-diamine] was tested. Which EC50 did it give?
The EC50 was > 10 µM.

Which EC50 does the source give for CN(CCN1CCCC1)c1ccc2nc(C3(C)CC3)nc(N3CCC(c4ccccc4N4CCC4)CC3)c2c1 [Example 36, [4-[4-(2-azetidin-1-yl-phenyl)-piperidin-1-yl]-2-(1-methyl-cyclopropyl)-quinazolin-6-yl]-methyl-(2-pyrrolidin-1-yl-ethyl)-amine] here?
Its EC50 is > 10 µM.

Which EC50 does the source give for COc1ccccc1C1CCN(c2nc(C3CCCC3)nc3ccc(N(C)C)cc23)CC1 [Example 37, {2-cyclopentyl-4-[4-(2-methoxy-phenyl)-piperidin-1-yl]-quinazolin-6-yl}-dimethyl-amine] here?
Its EC50 is > 10 µM.

COc1ccccc1C1CCN(c2nc(C3CCCC3)nc3ccc(N(C)CCO)cc23)CC1 [Example 38, 2-({2-cyclopentyl-4-[4-(2-methoxy-phenyl)-piperidin-1-yl]-quinazolin-6-yl}-methyl-amino)-ethanol] was tested. Which EC50 did it give?
Its EC50 is 2 to 10 µM.

How did the EC50 turn out when COCCN(C)c1ccc2nc(C3CCCC3)nc(N3CCC(c4ccccc4OC)CC3)c2c1 [Example 39, {2-cyclopentyl-4-[4-(2-methoxy-phenyl)-piperidin-1-yl]-quinazolin-6-yl}-(2-methoxy-ethyl)-methyl-amine] was run?
The EC50 was > 10 µM.

CCCN(C)c1ccc2nc(C3CCCC3)nc(N3CCC(c4ccccc4OC)CC3)c2c1 [Example 40] was tested. Which EC50 did it give?
Its EC50 is > 10 µM.

How did the EC50 turn out when COc1ccccc1C1CCN(c2nc(C3CCCC3)nc3ccc(N(C)CCN4CCOCC4)cc23)CC1 [Example 41] was run?
The EC50 was > 10 µM.

How did the EC50 turn out when COc1ccccc1C1CCN(c2nc(C3CCC3)nc3ccc(N(C)CCO)cc23)CC1 [Example 43, 2-({2-cyclobutyl-4-[4-(2-methoxy-phenyl)-piperidin-1-yl]-quinazolin-6-yl}-methyl-amino)-ethanol] was run?
The EC50 was 0.5 to 2 µM.

How did the EC50 turn out when COCCN(C)c1ccc2nc(C3CCC3)nc(N3CCC(c4ccccc4OC)CC3)c2c1 [Example 44] was run?
The EC50 was 2 to 10 µM.

With CCCN(C)c1ccc2nc(C3CCC3)nc(N3CCC(c4ccccc4OC)CC3)c2c1 [Example 45, {2-cyclobutyl-4-[4-(2-methoxy-phenyl)-piperidin-1-yl]-quinazolin-6-yl}-methyl-propyl-amine] as the compound, how does the EC50 read?
The EC50 was > 10 µM.

COc1ccccc1C1CCN(c2nc(C3CCC3)nc3ccc(N(C)CCN4CCOCC4)cc23)CC1 [Example 46, {2-cyclobutyl-4-[4-(2-methoxy-phenyl)-piperidin-1-yl]-quinazolin-6-yl}-methyl-(2-morpholin-4-yl-ethyl)-amine] was tested. Which EC50 did it give?
Its EC50 is 2 to 10 µM.

How did the EC50 turn out when COc1ccccc1C1CCN(c2nc(C3(C(F)(F)F)CC3)nc3ccc(N(C)CCO)cc23)CC1 [Example 47, 2-{[4-[4-(2-methoxy-phenyl)-piperidin-1-yl]-2-(1-trifluoromethyl-cyclopropyl)-quinazolin-6-yl]-methyl-amino}-ethanol] was run?
The EC50 was < 0.5 µM.

How did the EC50 turn out when COc1ccccc1C1CCN(c2nc(C3(C(F)(F)F)CC3)nc3ccc(N(C)CCN4CCOCC4)cc23)CC1 [Example 48] was run?
Its EC50 is 2 to 10 µM.

For CN(C)c1ccccc1C1CCN(c2nc(C3(C(F)(F)F)CC3)nc3ccc(N(C)CCO)cc23)CC1 [Example 49, 2-{[4-[4-(2-dimethylamino-phenyl)-piperidin-1-yl]-2-(1-trifluoromethyl-cyclopropyl)-quinazolin-6-yl]-methyl-amino}-ethanol], which EC50 is on record?
Its EC50 is 0.5 to 2 µM.

For CN(C)c1ccccc1C1CCN(c2nc(C3(C(F)(F)F)CC3)nc3ccc(N(C)CCN4CCOCC4)cc23)CC1 [Example 50, [4-[4-(2-dimethylamino-phenyl)-piperidin-1-yl]-2-(1-trifluoromethyl-cyclopropyl)-quinazolin-6-yl]-methyl-(2-morpholin-4-yl-ethyl)-amine], which EC50 is on record?
Its EC50 is > 10 µM.
